From PubChem BioAssay (NCI)
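Values below derive from 48-hour exposures of cells grown in 96-well plates, with endpoints linearly interpolated between the two concentrations bracketing the appropriate inhibition level. At the TGI there is no net growth.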

What was measured:
Test in all cases: inhibition of tumour cell growth, NCI panel, 48 h
786-0 renal = system: 786-0 renal
A498 renal = system: A498 renal
A549 NSCLC = system: A549 NSCLC
ACHN renal = system: ACHN renal
BT-549 breast = system: BT-549 breast
CAKI-1 renal = system: CAKI-1 renal
CCRF-CEM leukemia = system: CCRF-CEM leukemia
COLO 205 colon = system: COLO 205 colon
DU-145 prostate = system: DU-145 prostate
EKVX NSCLC = system: EKVX NSCLC
HCC-2998 colon = system: HCC-2998 colon
HCT-116 colon = system: HCT-116 colon
HCT-15 colon = system: HCT-15 colon
HL-60(TB) leukemia = system: HL-60(TB) leukemia
HOP-92 NSCLC = system: HOP-92 NSCLC
HS 578T breast = system: HS 578T breast
HT29 colon = system: HT29 colon
IGROV1 ovarian = system: IGROV1 ovarian
K-562 leukemia = system: K-562 leukemia
KM12 colon = system: KM12 colon
LOX IMVI melanoma = system: LOX IMVI melanoma
M14 melanoma = system: M14 melanoma
MALME-3M melanoma = system: MALME-3M melanoma
MCF7 breast = system: MCF7 breast
MDA-MB-231 breast = system: MDA-MB-231 breast
MDA-MB-435 = system: MDA-MB-435
MDA-N = system: MDA-N
MOLT-4 leukemia = system: MOLT-4 leukemia
NCI-H226 lung = system: NCI-H226 lung
NCI-H23 lung = system: NCI-H23 lung
NCI-H460 lung = system: NCI-H460 lung
NCI-H522 lung = system: NCI-H522 lung
NCI/ADR-RES ovarian = system: NCI/ADR-RES ovarian
OVCAR-4 ovarian = system: OVCAR-4 ovarian
OVCAR-5 ovarian = system: OVCAR-5 ovarian
OVCAR-8 ovarian = system: OVCAR-8 ovarian
PC-3 prostate = system: PC-3 prostate
RPMI-8226 leukemia = system: RPMI-8226 leukemia
RXF 393 renal = system: RXF 393 renal
SF-268 CNS = system: SF-268 CNS
SF-539 CNS = system: SF-539 CNS
SK-MEL-2 melanoma = system: SK-MEL-2 melanoma
SK-MEL-28 melanoma = system: SK-MEL-28 melanoma
SK-MEL-5 melanoma = system: SK-MEL-5 melanoma
SN12C renal = system: SN12C renal
SNB-19 CNS = system: SNB-19 CNS
SNB-75 CNS = system: SNB-75 CNS
SR leukemia = system: SR leukemia
SW-620 colon = system: SW-620 colon
T-47D breast = system: T-47D breast
TK-10 renal = system: TK-10 renal
U251 CNS = system: U251 CNS
UACC-257 melanoma = system: UACC-257 melanoma
UACC-62 melanoma = system: UACC-62 melanoma
UO-31 renal = system: UO-31 renal
HOP-62 NSCLC = system: HOP-62 NSCLC
OVCAR-3 ovarian = system: OVCAR-3 ovarian
SF-295 CNS = system: SF-295 CNS
SK-OV-3 ovarian = system: SK-OV-3 ovarian

## COc1cc(/C=C/C2=NN(c3cccc(S(=O)(=O)O)c3)C3(C2)SCC(=O)N3c2nc3ccccc3s2)cc(OC)c1OC (stereo not given)
786-0 renal
  TGI: 37.5 µM
A498 renal
  TGI: > 100 µM
A549 NSCLC
  TGI: > 100 µM
ACHN renal
  TGI: > 100 µM
BT-549 breast
  TGI: > 100 µM
CAKI-1 renal
  TGI: > 100 µM
CCRF-CEM leukemia
  TGI: 75.1 µM
COLO 205 colon
  TGI: > 100 µM
DU-145 prostate
  TGI: > 100 µM
EKVX NSCLC
  TGI: > 100 µM
HCC-2998 colon
  TGI: > 100 µM
HCT-116 colon
  TGI: > 100 µM
HCT-15 colon
  TGI: > 100 µM
HL-60(TB) leukemia
  TGI: > 100 µM
HOP-92 NSCLC
  TGI: > 100 µM
HS 578T breast
  TGI: > 100 µM
HT29 colon
  TGI: > 100 µM
IGROV1 ovarian
  TGI: > 100 µM
K-562 leukemia
  TGI: > 100 µM
KM12 colon
  TGI: > 100 µM
LOX IMVI melanoma
  TGI: 40.7 µM
M14 melanoma
  TGI: > 100 µM
MALME-3M melanoma
  TGI: > 100 µM
MCF7 breast
  TGI: > 100 µM
MDA-MB-231 breast
  TGI: > 100 µM
MDA-MB-435
  TGI: 50.2 µM
MDA-N
  TGI: > 100 µM
MOLT-4 leukemia
  TGI: > 100 µM
NCI-H226 lung
  TGI: > 100 µM
NCI-H23 lung
  TGI: > 100 µM
NCI-H460 lung
  TGI: > 100 µM
NCI-H522 lung
  TGI: 38.4 µM
NCI/ADR-RES ovarian
  TGI: > 100 µM
OVCAR-4 ovarian
  TGI: > 100 µM
OVCAR-5 ovarian
  TGI: > 100 µM
OVCAR-8 ovarian
  TGI: > 100 µM
PC-3 prostate
  TGI: > 100 µM
RPMI-8226 leukemia
  TGI: 48.9 µM
RXF 393 renal
  TGI: > 100 µM
SF-268 CNS
  TGI: > 100 µM
SF-539 CNS
  TGI: > 100 µM
SK-MEL-2 melanoma
  TGI: > 100 µM
SK-MEL-28 melanoma
  TGI: > 100 µM
SK-MEL-5 melanoma
  TGI: > 100 µM
SN12C renal
  TGI: > 100 µM
SNB-19 CNS
  TGI: > 100 µM
SNB-75 CNS
  TGI: > 100 µM
SR leukemia
  TGI: 66.2 µM
SW-620 colon
  TGI: > 100 µM
T-47D breast
  TGI: 47.8 µM
TK-10 renal
  TGI: 93.3 µM
U251 CNS
  TGI: > 100 µM
UACC-257 melanoma
  TGI: > 100 µM
UACC-62 melanoma
  TGI: > 100 µM
UO-31 renal
  TGI: > 100 µM

## C=CC(=C)CCC(Br)C(C)(C)Cl (stereo not given)
786-0 renal
  TGI: > 100 µM
A549 NSCLC
  TGI: > 100 µM
ACHN renal
  TGI: > 100 µM
BT-549 breast
  TGI: > 100 µM
CCRF-CEM leukemia
  TGI: > 100 µM
COLO 205 colon
  TGI: > 100 µM
DU-145 prostate
  TGI: > 100 µM
EKVX NSCLC
  TGI: > 100 µM
HCC-2998 colon
  TGI: > 100 µM
HCT-116 colon
  TGI: > 100 µM
HCT-15 colon
  TGI: > 100 µM
HL-60(TB) leukemia
  TGI: > 100 µM
HOP-62 NSCLC
  TGI: > 100 µM
HOP-92 NSCLC
  TGI: > 100 µM
HS 578T breast
  TGI: > 100 µM
HT29 colon
  TGI: > 100 µM
IGROV1 ovarian
  TGI: > 100 µM
K-562 leukemia
  TGI: > 100 µM
KM12 colon
  TGI: > 100 µM
M14 melanoma
  TGI: > 100 µM
MALME-3M melanoma
  TGI: > 100 µM
MCF7 breast
  TGI: > 100 µM
MDA-MB-231 breast
  TGI: > 100 µM
MDA-MB-435
  TGI: > 100 µM
MDA-N
  TGI: > 100 µM
MOLT-4 leukemia
  TGI: > 100 µM
NCI-H226 lung
  TGI: > 100 µM
NCI-H23 lung
  TGI: > 100 µM
NCI-H460 lung
  TGI: > 100 µM
NCI-H522 lung
  TGI: 54.2 µM
NCI/ADR-RES ovarian
  TGI: > 100 µM
OVCAR-3 ovarian
  TGI: > 100 µM
OVCAR-4 ovarian
  TGI: > 100 µM
OVCAR-5 ovarian
  TGI: > 100 µM
OVCAR-8 ovarian
  TGI: > 100 µM
PC-3 prostate
  TGI: > 100 µM
RPMI-8226 leukemia
  TGI: > 100 µM
RXF 393 renal
  TGI: > 100 µM
SF-268 CNS
  TGI: > 100 µM
SF-295 CNS
  TGI: > 100 µM
SF-539 CNS
  TGI: > 100 µM
SK-MEL-2 melanoma
  TGI: > 100 µM
SK-MEL-28 melanoma
  TGI: > 100 µM
SK-MEL-5 melanoma
  TGI: > 100 µM
SK-OV-3 ovarian
  TGI: > 100 µM
SN12C renal
  TGI: > 100 µM
SNB-19 CNS
  TGI: > 100 µM
SNB-75 CNS
  TGI: > 100 µM
SW-620 colon
  TGI: > 100 µM
T-47D breast
  TGI: > 100 µM
TK-10 renal
  TGI: > 100 µM
U251 CNS
  TGI: > 100 µM
UACC-257 melanoma
  TGI: > 100 µM
UACC-62 melanoma
  TGI: > 100 µM
UO-31 renal
  TGI: > 100 µM
